One may read the IC50 as the concentration needed to halve the response being measured. Low readings indicate inhibition by little substance, high ones a need for much substance.

In patent publication US5753617A, “Peptide inhibitors of cellular adhesion” (Centocor, Inc., priority 1995, dated 1998) one finds IC50 data, which are given here for 14 compounds.

Each structure is given as a SMILES string. Where a SMILES comes first, the peptide text is derived from it. Bridges are numbered along the chain shown (N, C = ends). [ ]: non-standard residue; d: D form. d2Nal = N[C@H](Cc1ccc2ccccc2c1)C(=O)O; dΔPro = O=C(O)[C@H]1C=CCN1

The target of the assay is T1, P-selectin (Homo sapiens, UniProt P16109).
T1 construct: P-selectin is isolated from human platelet lysates; from tissue; host or cells: human platelets (outdated platelet packs from a blood bank)
T1 sequence (P16109 42-830): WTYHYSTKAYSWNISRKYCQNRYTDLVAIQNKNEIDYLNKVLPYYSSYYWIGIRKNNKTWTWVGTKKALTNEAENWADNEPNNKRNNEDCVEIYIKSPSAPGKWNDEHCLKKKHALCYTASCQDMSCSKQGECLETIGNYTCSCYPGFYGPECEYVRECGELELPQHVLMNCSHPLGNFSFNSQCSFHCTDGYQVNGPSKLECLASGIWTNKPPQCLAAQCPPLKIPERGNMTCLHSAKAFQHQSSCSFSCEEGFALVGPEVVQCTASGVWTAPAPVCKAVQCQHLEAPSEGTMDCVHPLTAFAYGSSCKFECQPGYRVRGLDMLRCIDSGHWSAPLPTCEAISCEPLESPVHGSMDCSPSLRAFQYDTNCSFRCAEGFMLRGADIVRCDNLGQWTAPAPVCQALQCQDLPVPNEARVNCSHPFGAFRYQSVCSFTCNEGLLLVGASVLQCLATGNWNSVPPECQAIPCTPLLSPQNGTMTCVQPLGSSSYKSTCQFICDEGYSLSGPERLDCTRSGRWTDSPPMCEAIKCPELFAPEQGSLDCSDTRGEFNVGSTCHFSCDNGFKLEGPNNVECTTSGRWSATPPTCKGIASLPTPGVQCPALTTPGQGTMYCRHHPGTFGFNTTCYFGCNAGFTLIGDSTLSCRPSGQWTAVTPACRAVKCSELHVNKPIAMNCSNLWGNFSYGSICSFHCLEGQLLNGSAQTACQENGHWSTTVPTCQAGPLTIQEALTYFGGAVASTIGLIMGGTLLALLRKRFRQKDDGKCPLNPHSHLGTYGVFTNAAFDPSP
In words: Inhibition of human neutrophil adhesion to purified P-selectin immobilized on plastic wells. It is filed as cell-based. The conditions noted are these: inhibiting the binding of human neutrophils to P-selectin. From the text: Peptides can be screened for their ability to inhibit adhesion to cells, for example, neutrophil adhesion to purified P-selectin immobilized on plastic wells, using the assay described by Geng, et al., Nature 343, 757-760 (1990). Human neutrophils are isolated from heparinized whole blood by density gradient centrifugation on Mono-Poly resolving media, Flow Laboratories. Neutrophil suspensions are greater than 98% pure and greater than 95% viable by trypan blue exclusion. For adhesion assays, neutrophils are suspended at a concentration of 2×10^6 cells/mL in Hanks' balanced salt solution containing 1.26 mM Ca^2+ and 0.81 mM Mg^2+ (HBSS, Gibco) with […] human serum albumin (HBSS/HSA). Adhesion assays are conducted in triplicate in 96-well microliter plates, Corning, incubated at 4° C. overnight with 50 microliters of various protein solutions. P-selectin is isolated from human platelet lysates by immunoaffinity chromatography on antibody S12-Sepharose™ and ion-exchange chromatography on a Mono-Q™ column (FLPC, Pharmacia Fine Chemicals), as follows. Outdated human platelet packs (100 units) obtained from a blood bank and stored at 4° C. are pooled, adjusted to 5 mM EDTA at pH 7.5, centrifuged at 4,000 rpm for 30 minutes in 1 liter bottles, then washed three times with 1 liter of 0.1M NaCl, 20 mM Tris pH 7.5 (TBS), 5 mM EDTA, 5 mM benzamidine. The pellets are then resuspended in a minimum amount of wash buffer and made 1 mM in DIFP, then frozen in 50 mL screwtop tubes at -80° C. The frozen platelets are thawed and resuspended in 50 mL TBS, 5 mM benzamidine, 5 mM EDTA pH 7.5, […]. The suspension is frozen and thawed two times in a dry ice-acetone bath using a 600 mL lyophilizing flask, then homogenized in a glass/teflon mortar and pestle and made 1 mM in DIFP. The NaCl concentration is adjusted to 0.5M with a stock solution of 4M NaCl. After stirring the suspension at 4° C., it is centrifuged in polycarbonate tubes at 33,000 rpm for 60 minutes at 4° C. The supernatant (0.5M NaCl wash) is removed and saved; this supernatant contains the soluble form of P-selectin. Care is taken not to remove the top part of the pellet with the supernatant. The pellets are then homogenized in extraction buffer (TBS, 5 mM benzamidine, 5 mM EDTA, pH 7.5, 100 μM leupeptin, 2% Triton X-100). After centrifugation at 19,500 rpm for 25 minutes at 4° C., the supernatant is removed. The extraction procedure is repeated with the pellet and the supernatant is combined with the first supernatant. The combined extracts, which contain the membrane form of P-selectin, are adjusted to 0.5M NaCl. The soluble fraction (0.5M NaCl wash) and the membrane extract (also adjusted to 0.5M NaCl) are absorbed with separate pools of the monoclonal antibody S12 (directed to P-selectin) previously couple […]) at 5 mg/mL for 2 hours at 4° C. After letting the resins settle, the supernatants are removed. The S12 Affigel containing bound GMP-140 is then loaded into a column and washed overnight at 4° C. with 400 mL of 0.5M NaCl, 20 mM Tris pH 7.5, 0.01% Lubrol PX. Bound P-selectin is eluted from the S12 Affigel with 100 mL of 80% ethylene glycol, 1 mM MES pH 6.0, 0.01% Lubrol PX. Peak fractions with absorbance at 280 nm are pooled. Eluates are dialyzed against TBS with 0.05% Lubrol, then applied to a Mono Q column (FPLC from Pharmacia). The concentrated protein is step eluted with 2M NaCl, 20 mM Tris pH 7.5 (plus 0.05% Lubrol PX for the membrane fraction). Peak fractions are dialyzed into TBS pH 7.5 (plus 0.05% Lubrol PX for the membrane fraction). P-selectin is plated at 5 micrograms/mL and the control proteins: human serum albumin (Alb), platelet glycoprotein IIb/IIIa (IIb), von Willebrand factor (vWF), fibrinogen (FIB), thrombomodulin (TM), gelatin (GEL) or human serum (HS), are added at 50 micrograms/mL. […]
`CC(C)[C@@H](NC(=O)[C@@H](Cc1c[nH]c2ccccc12)NC(=O)[C@H](NC(=O)[C@@H](Cc1c[nH]c2ccccc12)NC(=O)[C@H]1CSSC[C@@H](N)C(=O)NCC(=O)NCC(=O)N1)[C@H](C)O)C(N)=O` [(28)] (H-[dC]GG[dC][dW][dT][dW][dV]-NH2; disulfide 1-4) gave an IC50 of 311 µM.

`CC[C@H](C)[C@@H]1NC(=O)CNC(=O)[C@@H](NC(=O)[C@@H](NC(=O)[C@H](CCCCN)NC(=O)[C@@H](N)CCCNC(=N)N)[C@@H](C)CC)CCC(=O)NCCCC[C@@H](C(=O)N[C@@H](Cc2c[nH]c3ccccc23)C(=O)N[C@H](C(N)=O)C(C)C)NC(=O)[C@H](Cc2c[nH]c3ccccc23)NC1=O` [(30)] (H-RKIEGIWKWV-NH2; lactam 4-8) showed an IC50 of 93 µM.

The compound `CC[C@H](C)[C@@H]1NC(=O)CNC(=O)[C@@H](NC(=O)[C@@H](NC(=O)[C@H](CCCCN)NC(=O)[C@@H](N)CCCNC(=N)N)[C@@H](C)CC)CCCCNC(=O)CC[C@@H](C(=O)N[C@@H](Cc2c[nH]c3ccccc23)C(=O)N[C@H](C(N)=O)C(C)C)NC(=O)[C@H](Cc2c[nH]c3ccccc23)NC1=O` [(31)] (H-RKIKGIWEWV-NH2; lactam 4-8) displayed an IC50 of 18 µM.

`CC[C@@H](C)[C@@H](NC(=O)[C@@H](CCCCN)NC(=O)[C@H](N)CCCNC(=N)N)C(=O)NCC(=O)N[C@@H]1CSSC[C@H](C(=O)N[C@@H](C(=O)N[C@@H](C(N)=O)C(C)C)[C@H](C)O)NC(=O)[C@@H](Cc2c[nH]c3ccccc23)NC(=O)[C@@H]([C@H](C)CC)NC1=O` [(32)] (H-[dR][dK][dI]G[dC][dI][dW][dC][dT][dV]-NH2; disulfide 5-8) showed an IC50 of 23 µM.

With `CC(C)[C@@H](NC(=O)[C@@H](Cc1c[nH]c2ccccc12)NC(=O)[C@H](NC(=O)[C@@H](Cc1c[nH]c2ccccc12)NC(=O)[C@H]1CSSC[C@@H](NC(=O)[C@H](CCCCN)NC(=O)[C@H](N)CCCNC(=N)N)C(=O)NCC(=O)N[C@@H](Cc2ccccc2)C(=O)N1)[C@H](C)O)C(N)=O` [(34)] (H-[dR]K[dC]GF[dC][dW][dT][dW][dV]-NH2; disulfide 3-6), the IC50 amounted to 88.5 µM.

`CC(C)[C@@H](NC(=O)[C@@H](Cc1c[nH]c2ccccc12)NC(=O)[C@H](NC(=O)[C@@H](Cc1c[nH]c2ccccc12)NC(=O)[C@H]1CSSC[C@H](NC(=O)[C@@H](CCCCN)NC(=O)[C@H](N)CCCNC(=N)N)C(=O)NCC(=O)N[C@@H](Cc2ccccc2)C(=O)N1)[C@H](C)O)C(N)=O` [(35)] (H-[dR][dK]CGF[dC][dW][dT][dW][dV]-NH2; disulfide 3-6) showed an IC50 of 11.6 µM.

On to `CC(C)[C@@H](NC(=O)[C@@H](Cc1c[nH]c2ccccc12)NC(=O)[C@H](NC(=O)[C@@H](Cc1c[nH]c2ccccc12)NC(=O)[C@H]1CSSC[C@@H](NC(=O)[C@@H](CCCCN)NC(=O)[C@H](N)CCCNC(=N)N)C(=O)NCC(=O)N2CC=C[C@@H]2C(=O)N1)[C@H](C)O)C(N)=O` [(36)] (H-[dR][dK][dC]G[dΔPro][dC][dW][dT][dW][dV]-NH2; disulfide 3-6), for which the IC50 is 267 µM.

The compound `CC(C)[C@@H](NC(=O)[C@@H](Cc1c[nH]c2ccccc12)NC(=O)[C@H](NC(=O)[C@@H](Cc1c[nH]c2ccccc12)NC(=O)[C@H]1CSSC[C@@H](NC(=O)[C@@H](CCCCN)NC(=O)[C@H](N)CCCNC(=N)N)C(=O)NCC(=O)N[C@@H](CCCNC(=N)N)C(=O)N1)[C@H](C)O)C(N)=O` [(40)] (H-[dR][dK][dC]GR[dC][dW][dT][dW][dV]-NH2; disulfide 3-6) displayed an IC50 of 324 µM.

As to `CC(C)[C@@H](NC(=O)[C@@H](Cc1c[nH]c2ccccc12)NC(=O)[C@H](NC(=O)[C@@H](CCC(N)=O)NC(=O)[C@H]1CSSC[C@@H](NC(=O)[C@@H](CCCCN)NC(=O)[C@H](N)CCCNC(=N)N)C(=O)NCC(=O)N[C@@H](Cc2ccccc2)C(=O)N1)[C@H](C)O)C(N)=O` [(46)] (H-[dR][dK][dC]GF[dC][dQ][dT][dW][dV]-NH2; disulfide 3-6), the IC50 worked out at 48.4 µM.

For `CC(C)[C@@H](NC(=O)[C@@H](Cc1c[nH]c2ccccc12)NC(=O)[C@H](NC(=O)[C@@H](Cc1c[nH]cn1)NC(=O)[C@H]1CSSC[C@@H](NC(=O)[C@@H](CCCCN)NC(=O)[C@H](N)CCCNC(=N)N)C(=O)NCC(=O)N[C@@H](Cc2ccccc2)C(=O)N1)[C@H](C)O)C(N)=O` [(48)] (H-[dR][dK][dC]GF[dC][dH][dT][dW][dV]-NH2; disulfide 3-6), the IC50 was 406 µM.

Compound `CC[C@H](C)[C@@H]1NC(=O)[C@H]([C@@H](C)CC)NC(=O)[C@H](NC(=O)[C@@H](CCCCN)NC(=O)[C@H](N)CCCNC(=N)N)CSSC[C@H](C(=O)N[C@H](Cc2c[nH]c3ccccc23)C(=O)N[C@@H](C(=O)N[C@H](Cc2c[nH]c3ccccc23)C(=O)N[C@@H](C(N)=O)C(C)C)[C@H](C)O)NC1=O` [(49)] (H-[dR][dK][dC]II[dC][dW][dT][dW][dV]-NH2; disulfide 3-6) had an IC50 of 7.1 µM.

On to `CC(=O)NCCCC[C@@H](NC(=O)[C@H]1CSC[C@@H](NC(=O)[C@@H](CCCCN)NC(=O)[C@H](N)CCCNC(=N)N)C(=O)NCC(=O)N[C@@H](Cc2ccccc2)C(=O)N1)C(=O)N[C@@H](C(=O)N[C@H](Cc1c[nH]c2ccccc12)C(=O)N[C@@H](C(N)=O)C(C)C)[C@H](C)O` [(50)], for which the IC50 was found to be 19.5 µM.

For the compound `CC(C)[C@@H](NC(=O)[C@@H](Cc1c[nH]c2ccccc12)NC(=O)[C@H](NC(=O)[C@@H](Cc1ccc2ccccc2c1)NC(=O)[C@H]1CSSC[C@@H](NC(=O)[C@@H](CCCCN)NC(=O)[C@H](N)CCCNC(=N)N)C(=O)NCC(=O)N[C@@H](Cc2ccccc2)C(=O)N1)[C@H](C)O)C(N)=O` [(51)] (H-[dR][dK][dC]GF[dC][d2Nal][dT][dW][dV]-NH2; disulfide 3-6), the half-maximal inhibitory concentration (IC50) turned out to be 7.7 µM.

The compound `CC(C)[C@@H](NC(=O)[C@@H](Cc1c[nH]c2ccccc12)NC(=O)[C@H](NC(=O)[C@@H](Cc1c[nH]c2ccccc12)NC(=O)[C@H]1CSSC[C@@H](NC(=O)[C@@H](CCCCN)NC(=O)[C@H](N)CCCNC(=N)N)C(=O)N[C@H](CCCCN)C(=O)N[C@@H](Cc2ccccc2)C(=O)N1)[C@H](C)O)C(N)=O` [(54)] (H-[dR][dK][dC][dK]F[dC][dW][dT][dW][dV]-NH2; disulfide 3-6) displayed an IC50 of 217 µM.
